Results: US20260174769A1, “MACROCYCLIC COMPOUNDS AND METHODS OF USE” (AMGEN INC., priority 2022, published 2026)
pIC50: −log10 of the molar value.

Legend:
AsPC-1 cells = assay: AsPC-1 CTG Assay (CellTiter-Glo cell viability, 72 h); format: cell-based, human; details: Homo sapiens, ASPC1, 72 h, AsPC-1 cells, 72 h; first value of cell; read-out: G12D/C/V Cell Proliferation CTG (72 h) AsPC-1
Procedure: (§1) AsPC-1 and SW620 CTG Assay Protocols
(§2) Serially-diluted compound or DMSO was added to the cells, and plates were incubated at 37° C., 5% CO2 for 72 h. Cell viability was measured using a CellTiter-Glo® Luminescent Cell Viability Assay kit (Promega) according to the manufacturer's protocol. The luminescence signal of treated samples was normalized to DMSO control, and data were analyzed using a 4-parameter logistic model to calculate IC50 values.

MIA PaCa-2 cells = assay: MIA PaCa-2 CTG Assay (CellTiter-Glo cell viability, 72 h); format: cell-based, human; details: Homo sapiens, second value of cell, read-out: G12D/C/V Cell Proliferation CTG (72 h) Mia PaCa-2
Procedure: MIA PaCa-2 CTG Assay Protocol
as §2

[1] = system: Phosphorylation of ERK1/2 in AsPC-1 cells; assay: Phospho-ERK1/2 MSD Assay; format: cell-based, human; details: Homo sapiens, ASPC1, 2 h, AsPC-1 cells, 2 h compound treatment; read-out: 2 h p-ERK (AsPC-1 cells), IC50
SW620 cells = assay: SW620 CTG Assay (CellTiter-Glo cell viability, 72 h); format: cell-based; details: Homo sapiens, SW-620, third value of cell, read-out: G12D/C/V Cell Proliferation CTG (72 h) SW620
Procedure: as §1
as §2, with “AsPC-1 (human pancreatic adenocarcinoma; ATCC CRL-1682) or SW620 (human colon adenocarcinoma; ATCC CCL-227) cells were cultured in RPMI 1640 medium containing 10% fetal bovine serum and 1× penicillin/streptomycin/L-glutamine. Cells were seeded in 384-well plates at a density of 3.33E+04 cells/mL and incubated at 37° C., 5% CO2, overnight. Serially-diluted” for “Serially-diluted”

pIC50 (AsPC-1 cells): 7.40
pIC50 (MIA PaCa-2 cells): 7.59
pIC50 [1]: 8.49
pIC50 (SW620 cells): 8.10
SMILES: Fc1c2ncc3c(nc(OC[C@@]45CCCN4C[C@H](F)C5)nc13)N1CCC[C@]3(C1)C[C@H](C3)OCCCCc1c(Cl)cc3[nH]ncc3c1-2 [Example 260, (1S,3R)-10-Chloro-32-fluoro-24-(((2R,7aS)-2-fluorotetrahydro-1H-pyrrolo[1,2-a]pyrrol-7a(5H)-yl)methoxy)-4-oxa-13,14,19,23,25,27-hexaazaheptacyclo[25.3.1.1˜1,3˜.1˜18,22˜.0˜9,17˜.0˜12,16˜.0˜21,26˜]tritriaconta-9,11,14,16,18(32),19,21,23,25-nonaene bis(2,2,2-trifluoroacetate)]
